“And” between values parts separate entries of the source, which are not always exact repeats. Identical values can stand only once. Numbers after ± are expanded uncertainties.
Settings: Liquid, Ebulliometric method (Recirculating still)

In the case of `CCOCCO` [2-ethoxyethan-1-ol], the “vapor or sublimation pressure” value (388.6 K) is reported as 53.33 ± 2.4 kPa, the “vapor or sublimation pressure” value (396.1 K) is reported as 69.33 ± 2.5 kPa and the “vapor or sublimation pressure” value (400.4 K) is reported as 80 ± 2.8 kPa. The “vapor or sublimation pressure” value (402.3 K) was 85.33 ± 3 kPa, the “vapor or sublimation pressure” value (404.2 K) was 90.66 ± 3.2 kPa and the “vapor or sublimation pressure” value (407.5 K) was 100.93 ± 3.3 kPa. For the same compound, the “vapor or sublimation pressure” value (407.8 K) was 101.33 ± 3.1 kPa and 100.93 ± 5.6 kPa.

With `CCOCCOC(C)=O` [2-ethoxyethyl ethanoate] the “vapor or sublimation pressure” value (408.2 K) was 53.33 ± 2.1 kPa, the “vapor or sublimation pressure” value (416.7 K) was 69.33 ± 2.2 kPa and the “vapor or sublimation pressure” value (421.5 K) was 80 ± 2.5 kPa. For the same compound, the “vapor or sublimation pressure” value (423.7 K) was 85.33 ± 2.7 kPa, the “vapor or sublimation pressure” value (425.8 K) was 90.66 ± 3.3 kPa and the “vapor or sublimation pressure” value (428.8 K) was 101.33 ± 3.7 kPa and 100.93 ± 5.5 kPa. For the same compound, the “vapor or sublimation pressure” value (429.7 K) was 100.93 ± 2.8 kPa.
